Experimental data published in US10370343B2, “[6,6] Fused bicyclic HDAC8 inhibitors” (FORMA Therapeutics, Inc., priority 2015, dated 2019).

Assays:
[1] = molecular target: T1, Full length human recombinant HDAC8 protein (Homo sapiens, UniProt Q9BY41); test: In vitro histone deacetylase assay: enzymatic HDAC8 electrophoretic mobility shift assay; format: biochemical; conditions: electrophoretic mobility shift assay; enzyme 1 nM; 2 μM fluorescently labeled peptide substrate RHKK(Ac)-NH2; 25° C.; 12 concentrations; read-out: HDAC8 IC50
T1 construct: Full length human recombinant HDAC8 protein was expressed in baculoviral system; made in house
T1 sequence (Q9BY41 1-377): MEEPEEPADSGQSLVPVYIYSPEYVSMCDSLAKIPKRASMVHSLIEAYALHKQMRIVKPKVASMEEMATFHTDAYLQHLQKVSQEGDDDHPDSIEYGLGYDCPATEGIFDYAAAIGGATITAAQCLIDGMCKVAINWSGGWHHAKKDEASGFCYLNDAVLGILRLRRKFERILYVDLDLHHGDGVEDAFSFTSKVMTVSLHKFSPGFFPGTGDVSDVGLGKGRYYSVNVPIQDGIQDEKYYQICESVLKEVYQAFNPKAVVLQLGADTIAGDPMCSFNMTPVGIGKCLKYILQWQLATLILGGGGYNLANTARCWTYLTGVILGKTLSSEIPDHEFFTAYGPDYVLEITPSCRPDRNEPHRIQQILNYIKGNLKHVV

[2] = molecular target: T2, Recombinant N-terminal GST tag full-length human HDAC8 (Homo sapiens, UniProt Q9BY41); test: HDAC8 probe binding assay, time resolved fluorescence (TRF) format; conditions: compounds grouped by IC50 range (Table 2)
T2 construct: Recombinant N-terminal GST tag full-length human HDAC8; purchased SignalChem H90-30G-1000; host or cells: baculovirus in Sf9 insect cells
T2 sequence (Q9BY41 1-377): T1 sequence (Q9BY41 1-377)
Procedure, shortened: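 Probe-binding TRF assay using full-length N-GST human HDAC8 expressed in baculovirus-infected Sf9 cells, incubated 16 h at room temperature and read at 340 nm excitation, 485/535 nm emission. Percent inhibition was normalised to no-enzyme and DMSO controls. IC50 was obtained by 4-parameter logistic fit.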

| SMILES | IC50 [1] | IC50 [2] |
| --- | --- | --- |
| O=C(NO)c1ccc2c(c1)N(CC1CCC1)C(=O)CO2 [Compound I-31, 4-(cyclobutylmethyl)-N-hydroxy-3-oxo-3,4-dihydro-2H-benzo[b][1,4]oxazine-6-carboxamide] | 25 to 100 nM | 25 to 100 nM |
| O=C(NO)c1ccc2c(c1)N(Cc1cccc(F)c1)C(=O)CO2 [Compound I-33, 4-(3-fluorobenzyl)-N-hydroxy-3-oxo-3,4-dihydro-2H-benzo[b][1,4]oxazine-6-carboxamide] | 25 to 100 nM | ≤ 25 nM |
| O=C(NO)c1ccc2c(c1)N(Cc1ccc(OC(F)(F)F)cc1)C(=O)CO2 [Compound I-36, N-hydroxy-3-oxo-4-(4-(trifluoromethoxy)benzyl)-3,4-dihydro-2H-benzo[b][1,4]oxazine-6-carboxamide] | < 25 nM | ≤ 25 nM |
| O=C(NO)c1ccc2c(c1)N(Cc1ccc(F)cc1)C(=O)CO2 [Compound I-37, 4-(4-fluorobenzyl)-N-hydroxy-3-oxo-3,4-dihydro-2H-benzo[b][1,4]oxazine-6-carboxamide] | < 25 nM | ≤ 25 nM |
| Cc1ccc(CN2C(=O)COc3ccc(C(=O)NO)cc32)cc1 [Compound I-38, N-hydroxy-4-(4-methylbenzyl)-3-oxo-3,4-dihydro-2H-benzo[b][1,4]oxazine-6-carboxamide] | < 25 nM | ≤ 25 nM |
| CCCCN1C(=O)COc2ccc(C(=O)NO)cc21 [Compound I-45, 4-butyl-N-hydroxy-3-oxo-3,4-dihydro-2H-benzo[b][1,4]oxazine-6-carboxamide] | 25 to 100 nM | 25 to 100 nM |
| O=C(NO)c1ccc2c(c1)N(CCOCC1CC1)C(=O)CO2 [Compound I-50, 4-(2-(cyclopropylmethoxy)ethyl)-N-hydroxy-3-oxo-3,4-dihydro-2H-benzo[b][1,4]oxazine-6-carboxamide] | 25 to 100 nM | 25 to 100 nM |
| O=C(NO)c1ccc2c(c1)N(CCOCC(F)(F)F)C(=O)CO2 [Compound I-53, N-hydroxy-3-oxo-4-(2-(2,2,2-trifluoroethoxy)ethyl)-3,4-dihydro-2H-benzo[b][1,4]oxazine-6-carboxamide] | 25 to 100 nM | 25 to 100 nM |
| O=C(NO)c1ccc2c(c1)N(CCc1ccccc1)C(=O)CO2 [Compound I-58, N-hydroxy-3-oxo-4-phenethyl-3,4-dihydro-2H-benzo[b][1,4]oxazine-6-carboxamide] | 25 to 100 nM | 25 to 100 nM |
| CC(C)CCN1C(=O)COc2ccc(C(=O)NO)cc21 [Compound I-59, N-hydroxy-4-isopentyl-3-oxo-3,4-dihydro-2H-benzo[b][1,4]oxazine-6-carboxamide] | 25 to 100 nM | 25 to 100 nM |
| COc1cccc(CN2C(=O)COc3ccc(C(=O)NO)cc32)c1 [Compound I-60, N-hydroxy-4-(3-methoxybenzyl)-3-oxo-3,4-dihydro-2H-benzo[b][1,4]oxazine-6-carboxamide] | 25 to 100 nM | 25 to 100 nM |
| O=C(NO)c1ccc2c(c1)N(Cc1ccc3nonc3c1)C(=O)CO2 [Compound I-62, 4-(benzo[c][1,2,5]oxadiazol-5-ylmethyl)-N-hydroxy-3-oxo-3,4-dihydro-2H-benzo[b][1,4]oxazine-6-carboxamide] | < 25 nM | 25 to 100 nM |
| O=C(NO)c1ccc2c(c1)N(Cc1ccc(Cl)cc1)C(=O)CO2 [Compound I-64, 4-(4-chlorobenzyl)-N-hydroxy-3-oxo-3,4-dihydro-2H-benzo[b][1,4]oxazine-6-carboxamide] | < 25 nM | ≤ 25 nM |
| Cc1cccc(CN2C(=O)COc3ccc(C(=O)NO)cc32)c1 [Compound I-68, N-hydroxy-4-(3-methylbenzyl)-3-oxo-3,4-dihydro-2H-benzo[b][1,4]oxazine-6-carboxamide] | 25 to 100 nM | ≤ 25 nM |
| Cc1cccc(CN2C(=O)COc3ccc(C(=O)NO)cc32)c1F [Compound I-74, 4-(2-fluoro-3-methylbenzyl)-N-hydroxy-3-oxo-3,4-dihydro-2H-benzo[b][1,4]oxazine-6-carboxamide] | < 25 nM | ≤ 25 nM |
| Cc1nc(-c2ccccc2)sc1CN1C(=O)COc2ccc(C(=O)NO)cc21 [Compound I-76, N-hydroxy-4-((4-methyl-2-phenylthiazol-5-yl)methyl)-3-oxo-3,4-dihydro-2H-benzo[b][1,4]oxazine-6-carboxamide] | 25 to 100 nM | 25 to 100 nM |

| SMILES | IC50 [1] | IC50 [2] |
| --- | --- | --- |
| O=C(NO)c1ccc2c(c1)N(Cc1cn(-c3ccccc3)nn1)C(=O)CO2 [Compound I-77, N-hydroxy-3-oxo-4-[(1-phenyl-1H-1,2,3-triazol-4-yl)methyl]-3,4-dihydro-2H-1,4-benzoxazine-6-carboxamide] | < 25 nM | ≤ 25 nM |
| CS(=O)(=O)c1ccc(CN2CCS(=O)(=O)c3ccc(C(=O)NO)cc32)cc1 [Compound I-82, N-hydroxy-4-(4-(methylsulfonyl)benzyl)-3,4-dihydro-2H-benzo[b][1,4]thiazine-6-carboxamide-1,1-dioxide] | < 25 nM | ≤ 25 nM |
| CC(c1ccc(S(C)(=O)=O)cc1)N1C(=O)COc2ccc(C(=O)NO)cc21 (stereo not shown) [Compound I-94, N-hydroxy-4-(1-(4-(methylsulfonyl)phenyl)ethyl)-3-oxo-3,4-dihydro-2H-benzo[b][1,4]oxazine-6-carboxamide] | < 25 nM | ≤ 25 nM |
| CC(c1c(F)cccc1F)N1C(=O)COc2ccc(C(=O)NO)cc21 (stereo not shown) [Compound I-96, 4-(1-(2,6-difluorophenyl)ethyl)-N-hydroxy-3-oxo-3,4-dihydro-2H-benzo[b][1,4]oxazine-6-carboxamide] | 25 to 100 nM | 25 to 100 nM |
| COc1ccc(CN2C(=O)C(C)(C)Oc3ccc(C(=O)NO)cc32)cc1 [Compound I-98, N-hydroxy-4-(4-methoxybenzyl)-2,2-dimethyl-3-oxo-3,4-dihydro-2H-benzo[b][1,4]oxazine-6-carboxamide] | 25 to 100 nM | 25 to 100 nM |
| CCC1Oc2ccc(C(=O)NO)cc2N(Cc2ccc(OC)cc2)C1=O (stereo not shown) [Compound I-99, 2-ethyl-N-hydroxy-4-(4-methoxybenzyl)-3-oxo-3,4-dihydro-2H-benzo[b][1,4]oxazine-6-carboxamide] | < 25 nM | ≤ 25 nM |
| COc1ccc(CN2C(=O)C(C(C)C)Oc3ccc(C(=O)NO)cc32)cc1 (stereo not shown) [Compound I-100, N-hydroxy-2-isopropyl-4-(4-methoxybenzyl)-3-oxo-3,4-dihydro-2H-benzo[b][1,4]oxazine-6-carboxamide] | < 25 nM | ≤ 25 nM |
| COc1ccc(CN2C(=O)C(c3ccccc3)Oc3ccc(C(=O)NO)cc32)cc1 (stereo not shown) [Compound I-101, N-hydroxy-4-(4-methoxybenzyl)-3-oxo-2-phenyl-3,4-dihydro-2H-benzo[b][1,4]oxazine-6-carboxamide] | < 25 nM | ≤ 25 nM |
| COc1ccc(CN2C(=O)C(Cc3ccccc3)Oc3ccc(C(=O)NO)cc32)cc1 (stereo not shown) [Compound I-102, 2-benzyl-N-hydroxy-4-(4-methoxybenzyl)-3-oxo-3,4-dihydro-2H-benzo[b][1,4]oxazine-6-carboxamide] | 25 to 100 nM | ≤ 25 nM |
| COc1ccc(CN2C(=O)C(C(C)(C)C)Oc3ccc(C(=O)NO)cc32)cc1 (stereo not shown) [Compound I-103, 2-(tert-butyl)-N-hydroxy-4-(4-methoxybenzyl)-3-oxo-3,4-dihydro-2H-benzo[b][1,4]oxazine-6-carboxamide] | < 25 nM | ≤ 25 nM |
| COc1ccc(CN2C(=O)C(CCN)Oc3ccc(C(=O)NO)cc32)cc1 (stereo not shown) [Compound I-104, 2-(2-aminoethyl)-N-hydroxy-4-(4-methoxybenzyl)-3-oxo-3,4-dihydro-2H-benzo[b][1,4]oxazine-6-carboxamide] | 25 to 100 nM | ≤ 25 nM |
| O=C(NO)c1ccc2c(c1)N(Cc1ccccc1)CCO2 [Compound I-116, 4-benzyl-N-hydroxy-3,4-dihydro-2H-benzo[b][1,4]oxazine-6-carboxamide] | 100 to 1000 nM | 25 to 100 nM |
| CS(=O)(=O)c1cccc(CN2CCOc3ccc(C(=O)NO)cc32)c1 [Compound I-125, N-hydroxy-4-(3-(methylsulfonyl)benzyl)-3,4-dihydro-2H-benzo[b][1,4]oxazine-6-carboxamide] | 100 to 1000 nM | 25 to 100 nM |
| CC(c1ccc(S(C)(=O)=O)cc1)N1CCOc2ccc(C(=O)NO)cc21 (stereo not shown) [Compound I-135, N-hydroxy-4-(1-(4-(methylsulfonyl)phenyl)ethyl)-3,4-dihydro-2H-benzo[b][1,4]oxazine-6-carboxamide] | 25 to 100 nM | 25 to 100 nM |
| COc1ccc(CN2C(=O)COc3ccc(C(=O)NO)cc32)cc1 [Compound I-141, N-hydroxy-4-(4-methoxybenzyl)-3-oxo-3,4-dihydro-2H-benzo[b][1,4]oxazine-6-carboxamide] | < 25 nM | ≤ 25 nM |
| CS(=O)(=O)c1ccc(CN2C(=O)COc3ccc(C(=O)NO)cc32)cc1 [Compound I-142, N-hydroxy-4-(4-(methylsulfonyl)benzyl)-3-oxo-3,4-dihydro-2H-benzo[b][1,4]oxazine-6-carboxamide] | < 25 nM | ≤ 25 nM |
